Data as given in patent US20080299602A1, “Methods of Employing Vascular Leakage to Diagnose a Capillary Leak Disorder” (priority 2007, published 2008).

System: omental vessels of the rat
Experiment: Vascular leakage after intravenous bolus of marinobufagenin (FIG. 1), fluorescein-tagged albumin videomicroscopy
Assay type: in vivo
Conditions: bolus of 200 nM marinobufagenin injected intravenously, time increments vs control (Con)
Procedure: FIG. 1 illustrates increasing vascular leakage at time increments from 5 seconds to 50 seconds with Con being the control group.
A bolus of 200 nM marinobufagenin was injected intravenously.
In the experimental procedure, single venules were visualized by way of a videomicroscopic technique, which permits viewing blood flow directly. The rats were injected with albumin that had been tagged with fluorescein dye. The distribution of the albumin in the omental vessels of the rat was then observed with a computer being employed to repeatedly measure the dye in the blood vessel and in the interstitium next to the blood vessel, as well as a remote site, which would serve as the control.

C[C@]12CC[C@H](O)C[C@@]1(O)CC[C@@H]1[C@@H]2CC[C@]2(C)[C@@H](c3ccc(=O)oc3)C[C@H]3O[C@]132 [marinobufagenin]
vascular leakage (dye monitored within the extravascular space): progressive, large leakage
